Paper PMC3486838 (PLoS ONE, 2012)
Read-outs that look alike come from different tables or passages of the source.

What was measured:
human CYP11B1 = biological target: T1, human CYP11B1 (Homo sapiens, UniProt P15538); test: Inhibition of CYP11B1 in V79 MZh cells expressing the enzyme; type: cell-based
T1 construct: expressed in transfected cells; host or cells: V79MZh cells
T1 sequence (P15538 25-503): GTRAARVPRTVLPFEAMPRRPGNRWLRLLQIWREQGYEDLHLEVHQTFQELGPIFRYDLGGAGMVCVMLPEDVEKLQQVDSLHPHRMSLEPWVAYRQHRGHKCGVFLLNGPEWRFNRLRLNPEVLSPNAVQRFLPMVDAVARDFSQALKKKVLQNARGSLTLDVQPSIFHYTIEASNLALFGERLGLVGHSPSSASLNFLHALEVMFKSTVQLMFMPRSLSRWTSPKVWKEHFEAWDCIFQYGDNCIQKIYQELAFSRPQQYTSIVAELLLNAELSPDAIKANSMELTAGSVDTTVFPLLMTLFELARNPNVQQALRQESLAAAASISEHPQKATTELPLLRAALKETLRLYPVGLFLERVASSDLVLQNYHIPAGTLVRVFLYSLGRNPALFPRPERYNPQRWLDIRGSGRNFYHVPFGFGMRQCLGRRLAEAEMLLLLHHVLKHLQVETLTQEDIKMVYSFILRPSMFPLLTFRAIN
Experimental: (§1) V79MZh cells expressing human CYP11B1 [45] or CYP11B2 [44] were incubated with [^14C]-11-deoxycorticosterone as substrate. The assay was performed as previously described.

human CYP11B2 = biological target: T2, human CYP11B2 (Homo sapiens, UniProt P19099); test: Inhibition of CYP11B2 in V79 MZh cells expressing the enzyme; type: cell-based; settings: for SF: selectivity factor = IC50 CYP11B1/IC50 CYP11B2: CYP11B2 over CYP11B1; for IC50: substrate deoxycorticosterone, 100 nM
T2 construct: expressed in transfected cells; host or cells: V79MZh cells
T2 sequence (P19099 25-503): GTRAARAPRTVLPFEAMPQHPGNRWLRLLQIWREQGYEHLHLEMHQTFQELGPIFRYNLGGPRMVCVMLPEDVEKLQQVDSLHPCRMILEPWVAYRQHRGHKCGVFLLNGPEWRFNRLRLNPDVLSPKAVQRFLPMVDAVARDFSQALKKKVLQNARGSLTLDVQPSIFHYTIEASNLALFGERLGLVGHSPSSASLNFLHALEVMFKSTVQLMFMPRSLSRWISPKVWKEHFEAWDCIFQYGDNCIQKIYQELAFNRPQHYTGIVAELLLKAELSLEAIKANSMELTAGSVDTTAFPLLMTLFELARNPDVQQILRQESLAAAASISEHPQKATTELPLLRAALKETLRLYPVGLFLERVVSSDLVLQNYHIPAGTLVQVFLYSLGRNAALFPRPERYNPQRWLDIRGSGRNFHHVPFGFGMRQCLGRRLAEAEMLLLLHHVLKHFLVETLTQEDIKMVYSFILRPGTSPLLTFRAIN
Experimental: as §1

[1] = biological target: T3, human hepatic enzyme CYP1A2 (Homo sapiens, UniProt P05177); test: Inhibition of human hepatic CYP1A2, recombinant enzyme (Supersomes); type: biochemical
T3 sequence (P05177 1-516): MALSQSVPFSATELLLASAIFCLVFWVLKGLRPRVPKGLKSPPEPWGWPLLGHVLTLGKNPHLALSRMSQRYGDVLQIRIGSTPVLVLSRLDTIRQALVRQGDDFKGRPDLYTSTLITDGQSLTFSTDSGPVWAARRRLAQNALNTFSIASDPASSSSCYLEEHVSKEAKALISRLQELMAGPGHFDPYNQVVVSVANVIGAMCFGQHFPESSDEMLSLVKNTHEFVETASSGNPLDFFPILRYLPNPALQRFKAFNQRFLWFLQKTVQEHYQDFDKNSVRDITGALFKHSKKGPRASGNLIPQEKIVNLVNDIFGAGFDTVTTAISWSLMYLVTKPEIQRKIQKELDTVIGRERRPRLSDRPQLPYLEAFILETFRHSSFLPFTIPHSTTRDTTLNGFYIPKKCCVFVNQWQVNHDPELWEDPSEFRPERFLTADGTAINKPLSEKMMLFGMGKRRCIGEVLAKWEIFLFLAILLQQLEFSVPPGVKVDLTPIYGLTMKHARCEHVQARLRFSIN

[2] = Hamster fibroblasts (V79 MZh) expressing human CYP11B1, substrate deoxycorticosterone, 100 nM, read-out: 11B1 IC50
[3] = Hamster fibroblasts (V79 MZh) expressing human CYP11B2, read-out: 11B2 IC50
[4] = recombinantly expressed enzyme from baculovirus infected insect microsomes (Supersomes)

OC1CC2C=C(c3cccnc3)CC2C1 (stereo not drawn) [Compound 5, 5-Pyridin-3-yl-1,2,3,3a,4,6a-hexahydro-pentalen-2-ol]
melting point: 110 to 112 °C | IC50 (human CYP11B1; [2]): 663 ± 27 nM | SF: selectivity factor = IC50 CYP11B1/IC50 CYP11B2 (human CYP11B2): 3 | IC50 (human CYP11B2; [3]): 225 ± 21 nM

CN1C2C=C(c3cccnc3)CC1CC2 (stereo not drawn) [Compound 20, 8-Methyl-3-pyridin-3-yl-8-aza-bicyclo[3.2.1]oct-2-ene]
IC50 (human CYP11B1; [2]): > 5000 nM | IC50 (human CYP11B2; [3]): 2440 ± 88 nM

c1cncc(C2CCCCCCCCCCC2)c1 [Compound 16, 3-Cyclododecyl-pyridine]
IC50 (human CYP11B1; [2]): 1770 ± 56 nM | SF: selectivity factor = IC50 CYP11B1/IC50 CYP11B2 (human CYP11B2): 3 | IC50 (human CYP11B2; [3]): 636 ± 32 nM

COc1ccc2c(c1)CC(C)C(c1cccnc1)=C2 (stereo not drawn) [III, reference compound]
IC50 (human CYP11B1; [2]): 248 ± 19 nM | IC50 [1, 4]: 741 ± 55 nM | SF: selectivity factor = IC50 CYP11B1/IC50 CYP11B2 (human CYP11B2): 79 | IC50 (human CYP11B2; [3]): 3 ± 1 nM

O=C1CCC=C(c2cccnc2)CCC1 [Compound 7, 5-Pyridin-3-yl-cyclooct-4-enone]
IC50 (human CYP11B1; [2]): 851 ± 58 nM | SF: selectivity factor = IC50 CYP11B1/IC50 CYP11B2 (human CYP11B2): 4 | IC50 (human CYP11B2; [3]): 205 ± 16 nM

CC12CCC(c3cccnc3)=CC1=CCCC2=O (racemic) [Compound 17, (±)-8a-Methyl-6-pyridin-3-yl-3,7,8,8a-tetrahydro-2H-naphthalen-1-one]
IC50 (human CYP11B1; [2]): 1020 ± 78 nM | SF: selectivity factor = IC50 CYP11B1/IC50 CYP11B2 (human CYP11B2): 2 | IC50 (human CYP11B2; [3]): 462 ± 36 nM

OC1CC2CC(c3cccnc3)CC2C1 (stereo not drawn) [Compound 6, 5-Pyridin-3-yl-octahydro-pentalen-2-ol]
IC50 (human CYP11B1; [2]): 133 ± 29 nM | SF: selectivity factor = IC50 CYP11B1/IC50 CYP11B2 (human CYP11B2): 0.4 | IC50 (human CYP11B2; [3]): 347 ± 35 nM

COC1CCc2cc(-c3cccnc3)ccc2C1 (stereo not drawn) [II, reference compound]
IC50 (human CYP11B1; [2]): 1140 ± 78 nM | IC50 [1, 4]: 440 ± 11 nM | SF: selectivity factor = IC50 CYP11B1/IC50 CYP11B2 (human CYP11B2): 347 | IC50 (human CYP11B2; [3]): 3 ± 1 nM

C1=C(c2cccnc2)C2CCC1C2 (stereo not drawn) [Compound 18, 3-Bicyclo[2.2.1]hept-2-en-2-yl-pyridine]
IC50 (human CYP11B1; [2]): 2130 ± 113 nM | SF: selectivity factor = IC50 CYP11B1/IC50 CYP11B2 (human CYP11B2): 3 | IC50 (human CYP11B2; [3]): 889 ± 57 nM

C1=C(c2cccnc2)CCCCCCCCCC1 [Compound 15, 3-Cyclododec-1-enyl-pyridine]
IC50 (human CYP11B1; [2]): > 10000 nM | IC50 (human CYP11B2; [3]): 1170 ± 97 nM

c1cncc(C2CCC3CCCCC3C2)c1 (stereo not drawn) [Compound 1, 3-(Decahydro-naphthalen-2-yl)-pyridine]
IC50 (human CYP11B1; [2]): 611 ± 34 nM | SF: selectivity factor = IC50 CYP11B1/IC50 CYP11B2 (human CYP11B2): 4 | IC50 (human CYP11B2; [3]): 157 ± 14 nM

OC1CCCC(c2cccnc2)CCC1 (stereo not drawn) [Compound 10, (endo/exo)-5-Pyridin-3-yl-cyclooctanol]
IC50 (human CYP11B1; [2]): 246 ± 36 nM | IC50 (human CYP11B2; [3]): 294 ± 23 nM

COc1ccc2cc(-c3cccnc3)ccc2c1 [I, reference compound]
IC50 [1, 4]: 41 ± 5 nM

OC1CCC=C(c2cccnc2)CCC1 (stereo not drawn) [Compound 9, 5-Pyridin-3-yl-cyclooct-4-enol]
IC50 (human CYP11B1; [2]): 348 ± 25 nM | SF: selectivity factor = IC50 CYP11B1/IC50 CYP11B2 (human CYP11B2): 2 | IC50 (human CYP11B2; [3]): 141 ± 11 nM

C1=C(c2cccnc2)CCCCCC1 [Compound 11, 3-Cyclooct-1-enyl-pyridine]
IC50 (human CYP11B1; [2]): 195 ± 15 nM | IC50 [1, 4]: > 100000 nM | SF: selectivity factor = IC50 CYP11B1/IC50 CYP11B2 (human CYP11B2): 2 | IC50 (human CYP11B2; [3]): 81 ± 7 nM

C=C1CC2C=C(c3cccnc3)CC2C1 (stereo not drawn) [Compound 4, 3-(5-Methylidene-1,3a,4,5,6,6a-hexahydro-pentalen-2-yl)-pyridine]
IC50 (human CYP11B1; [2]): 205 ± 12 nM | IC50 [1, 4]: 2170 ± 97 nM | SF: selectivity factor = IC50 CYP11B1/IC50 CYP11B2 (human CYP11B2): 34 | IC50 (human CYP11B2; [3]): 6 ± 2 nM

CN1C2CCC1CC(c1cccnc1)C2 (stereo not drawn) [Compound 21, (endo/exo)-8-Methyl-3-pyridin-3-yl-8-aza-bicyclo[3.2.1]octane]
IC50 (human CYP11B1): > 10000 nM | IC50 (human CYP11B2; 11B2 IC50, Hamster fibroblasts (V79 MZh) expressing human CYP11B2): 2830 ± 135 nM

c1cncc(C2CCCCCCC2)c1 [Compound 12, 3-Cyclooctyl-pyridine]
IC50 (human CYP11B1; [2]): 1050 ± 67 nM | CYP1A2 inhibition at 2 µM [1]: no inhibition | IC50 [1, 4]: > 100000 nM | SF: selectivity factor = IC50 CYP11B1/IC50 CYP11B2 (human CYP11B2): 50 | IC50 (human CYP11B2; [3]): 21 ± 5 nM

O=C1CCCC(c2cccnc2)CCC1 [Compound 8, 5-Pyridin-3-yl-cyclooctanone]
IC50 (human CYP11B1; [2]): 1350 ± 79 nM | SF: selectivity factor = IC50 CYP11B1/IC50 CYP11B2 (human CYP11B2): 3 | IC50 (human CYP11B2; [3]): 443 ± 36 nM

C1=C(c2cccnc2)CCCCCCCC1 [Compound 13, 3-Cyclodec-1-enyl-pyridine]
IC50 (human CYP11B1; [2]): 258 ± 16 nM | CYP1A2 inhibition at 2 µM [1]: no inhibition | IC50 [1, 4]: > 100000 nM | SF: selectivity factor = IC50 CYP11B1/IC50 CYP11B2 (human CYP11B2): 12 | IC50 (human CYP11B2; [3]): 21 ± 3 nM

c1cncc(C2CCCCCCCCC2)c1 [Compound 14, 3-Cyclodecyl-pyridine]
IC50 (human CYP11B1; [2]): 872 ± 79 nM | IC50 [1, 4]: > 100000 nM | SF: selectivity factor = IC50 CYP11B1/IC50 CYP11B2 (human CYP11B2): 40 | IC50 (human CYP11B2; [3]): 22 ± 2 nM

O=C1CC2CC(c3cccnc3)CC2C1 (stereo not drawn) [Compound 3, 5-Pyridin-3-yl-hexahydro-pentalen-2-one]
IC50 (human CYP11B1; [2]): 306 ± 25 nM | IC50 (human CYP11B2; [3]): 258 ± 22 nM

c1cncc(C2CC3CCC2C3)c1 (stereo not drawn) [Compound 19, (endo/exo)-3-Bicyclo[2.2.1]hept-2-yl-pyridine]
IC50 (human CYP11B1; [2]): 137 ± 12 nM | IC50 ([1]; recombinant CYP1A2): 44000 nM | IC50 [1, 4]: 44430 ± 388 nM | IC50 (human CYP11B2; [3]): 99 ± 21 nM

O=C1CC2C=C(c3cccnc3)CC2C1 (stereo not drawn) [Compound 2, 5-Pyridin-3-yl-3,3a,4,6a-tetrahydro-1H-pentalen-2-one]
IC50 (human CYP11B1; [2]): 282 ± 17 nM | CYP1A2 inhibition at 2 µM [1]: no inhibition | IC50 [1, 4]: > 100000 nM | SF: selectivity factor = IC50 CYP11B1/IC50 CYP11B2 (human CYP11B2): 8 | IC50 (human CYP11B2; [3]): 34 ± 5 nM
